# Source: patent US20230219886A1, “NOVEL SELENO-NSAID ANALOGS AND USES THEREOF” (THE PENN STATE RESEARCH FOUNDATION, priority 2020, published 2023)
# Read-outs that look alike come from different tables or passages of the source.
# What was measured:
# H1299 (lung carcinoma) = assay: MTT cell viability assay, H1299; settings: Homo sapiens, NCI-H1299, 48 h, read-out: cell viability
# Procedure: (§1) Cell Culture Conditions. The cell lines were obtained from the American Type Culture Collection (ATCC). PANC-1 and Caco-2 cell lines were maintained in DMEM medium (Gibco); HT-29, HCT-116 and RKO cells were maintained in McCoy's 5A medium (Gibco); and DU-145 and H1299 cells were maintained in RPMI 1640 medium (Gibco), supplemented with 10% fetal bovine serum (FBS; Gibco) and 1% antibiotics (10.00 units/mL penicillin and 10.00 mg/mL streptomycin; Gibco). Cells were preserved in tissue culture flasks at 37° C. and 5% CO2. Culture medium was replaced every three days.
# (§2) Cell Viability Assay. The effect of each compound on cell viability was tested using the MTT assay (81). Briefly, 9000 cells/well were grown in 96-well plates for 12 h. Then these cells were incubated with either DMSO (control) or nine different concentration between 0.01-50 μM of the test compounds for 24, 48, and 72 h. Three hours before the termination point, 20 μL of MTT were added to measure cellular viability. The resultant formazan crystals were dissolved in 50 μL of DMSO, and absorbance was measured at 570 nm and 630 nm wavelengths. IC50, GI50, TGI and LC50 values were calculated using OriginPro 8.5.1.
# (§3) Evaluation of the antiproliferative activities of the novel molecules. […] These four cell lines were treated with each compound at three concentrations (5, 25 and 50 μM) for 48 h.
# [1] = tested on: DU-145 (prostate carcinoma); assay: MTT cell viability assay, DU-145; settings: Homo sapiens, DU-145, 48 h, read-out: cell viability
# Procedure: as §1, §2, §3
# CACO-2 CRC cells = assay: cells; settings: Homo sapiens
# Procedure: as §1, §2
# RKO CRC cells = assay: cells; settings: Homo sapiens
# Procedure: as §1, §2
# HCT-116 CRC cells = assay: MTT cell viability assay, HCT-116; format: cell-based, human; settings: Homo sapiens, read-out: IC50
# Procedure: as §1, §2
# HT-29 (CRC) = assay: MTT cell viability assay, HT-29; settings: for viability at 5 µM / viability at 25 µM / viability at 50 µM: read-out: cell viability; for CC50: read-out: LC50
# Procedure: as §1, §2, §3
# [2] = tested on: PANC-1 (pancreatic carcinoma); assay: MTT cell viability assay, Panc-1; settings: Homo sapiens, PANC-1, 48 h, read-out: cell viability
# Procedure: as §1, §2, §3
# NCI-60 cell lines = assay: NCI-60 one-dose screen, mean of all cell lines; format: cell-based, human; settings: 10 μM, 48 h
# Source text: (§4) NCI-60 Analysis. 1a and 6a were submitted to National Cancer Institute's (NCI) Developmental Therapeutics Program (DTP) where the cytotoxicity profile was investigated across their 60 human cancer cell line panel according to the protocol available on multiple sources (71-73, 83). The COMPARE algorithm (73), was utilized to evaluate the activity profile of 6a in comparison to those of known cytotoxins established in marketed drugs and standard agent data sets in order to correlate plausible modes of action.
# (§5) NCI-60 analysis. Compounds 1a, 5a and 6a were submitted to the National Cancer Institute's (NCI) Developmental Therapeutics Program (DTP). NCI-60 program consists in a panel of 60 human cancer cell lines from a variety of cancers, including refractory tumors such as lung, ovarian, CRC, breast, brain and renal cancers, and melanomas together with more treatable cancers such as leukemias (71). 1a [NSC: 803071], 5a [NSC: 820332] and 6a [NSC: 811013] were initially screened at one dose (10 μM) at 48 h. Then, NCI selected only compound 6a to perform dose-response characterization (72).
# [3] = tested on: human CRC cells (HT-29, HCT-116, RKO and CACO-2); assay: MTT assay, panel of four CRC cells; format: cell-based; settings: 4 CRC cells
# Procedure: Cell Culture Conditions. […] Culture medium was replaced every three days.
# Evaluation of the antiproliferative activity of methylseleno-NSAIDs, MSA and NSAIDs alone or in combination. […] CRC cells were treated for 24, 48 and 72 h at different concentrations to stablish the dose-response curves.
# SK-MEL-28 (melanoma) = assay: NCI-60 one-dose screen, SK-MEL-28; format: cell-based, human; settings: SK-MEL-28, 10 μM, 48 h
# Source text: as §4, §5
# BT-549 (breast) = assay: NCI-60 one-dose screen, BT-549; format: cell-based, human; settings: BT-549, 10 μM, 48 h
# Source text: as §4, §5
# TK-10 (renal) = assay: NCI-60 one-dose screen, TK-10; format: cell-based, human; settings: TK-10, 10 μM, 48 h
# Source text: as §4, §5
# DU-145 (prostate) = assay: NCI-60 one-dose screen, DU-145; format: cell-based, human; settings: DU-145, 10 μM, 48 h
# Source text: as §4, §5
structure (smiles),measurement,setting,value
"COc1ccc2c(c1)c(CC(=O)O)c(C)n2C(=O)c1ccc(Cl)cc1 [Inn, indomethacin, reference compound]",viability at 5 µM,H1299 (lung carcinoma),76 ± 23.7%
same,viability at 25 µM,H1299 (lung carcinoma),70.4 ± 19.8%
same,viability at 50 µM,H1299 (lung carcinoma),66.2 ± 14%
same,viability at 5 µM,[1],89.6 ± 12.3%
same,viability at 25 µM,[1],97.6 ± 21%
same,viability at 50 µM,[1],96.2 ± 18.5%
same,IC50,"CACO-2 CRC cells; Caco-2, 24 h",> 50 µM
same,IC50,"CACO-2 CRC cells; Caco-2, 48 h",> 50 µM
same,IC50,"CACO-2 CRC cells; Caco-2, 72 h",> 50 µM
same,IC50,RKO CRC cells; 24 h,> 50 µM
same,IC50,RKO CRC cells; 48 h,> 50 µM
same,IC50,RKO CRC cells; 72 h,> 50 µM
same,IC50,"HCT-116 CRC cells; HCT-116, 24 h",> 50 µM
same,IC50,"HCT-116 CRC cells; HCT-116, 48 h",> 50 µM
same,IC50,"HCT-116 CRC cells; HCT-116, 72 h",> 50 µM
same,TGI,"HT-29 (CRC); HT-29, 24 h",>50 µM
same,TGI,"HT-29 (CRC); HT-29, 48 h",>50 µM
same,TGI,"HT-29 (CRC); HT-29, 72 h",>50 µM
same,GI50,"HT-29 (CRC); Homo sapiens, HT-29, 24 h",> 50 µM
same,IC50,"HT-29 (CRC); Homo sapiens, HT-29, 24 h",> 50 µM
same,GI50,"HT-29 (CRC); Homo sapiens, HT-29, 48 h",> 50 µM
same,IC50,"HT-29 (CRC); Homo sapiens, HT-29, 48 h",> 50 µM
same,viability at 5 µM,"HT-29 (CRC); Homo sapiens, HT-29, 48 h",100 ± 8.4%
same,viability at 25 µM,"HT-29 (CRC); Homo sapiens, HT-29, 48 h",99.8 ± 14.2%
same,viability at 50 µM,"HT-29 (CRC); Homo sapiens, HT-29, 48 h",98.3 ± 13.4%
same,GI50,"HT-29 (CRC); Homo sapiens, HT-29, 72 h",> 50 µM
same,IC50,"HT-29 (CRC); Homo sapiens, HT-29, 72 h",> 50 µM
same,viability at 5 µM,[2],94.1 ± 8.3%
same,viability at 25 µM,[2],85.9 ± 10.5%
same,viability at 50 µM,[2],83.2 ± 6.3%
"COc1ccc2c(c1)c(CC(=O)[Se]C)c(C)n2C(=O)c1ccc(Cl)cc1 [Compound 5a, Se-methyl 2-(1-(4-chlorobenzoyl)-5-methoxy-2-methyl-1H-indol-3-yl)ethane-selenoate]",viability at 5 µM,H1299 (lung carcinoma),49.5 ± 9.4%
same,viability at 25 µM,H1299 (lung carcinoma),37 ± 5.6%
same,viability at 50 µM,H1299 (lung carcinoma),32.4 ± 5.8%
same,GP mean value towards all cell lines,NCI-60 cell lines,4.01%
same,viability at 5 µM,[1],52.1 ± 1.5%
same,viability at 25 µM,[1],34.5 ± 3%
same,viability at 50 µM,[1],27.4 ± 1.7%
same,IC50,"CACO-2 CRC cells; Caco-2, 24 h",> 50 µM
same,IC50,"CACO-2 CRC cells; Caco-2, 48 h",4.2 ± 1.7 µM
same,IC50,"CACO-2 CRC cells; Caco-2, 72 h",5.5 ± 1.1 µM
same,IC50,RKO CRC cells; 24 h,> 50 µM
same,IC50,RKO CRC cells; 48 h,10.1 ± 6.9 µM
same,IC50,RKO CRC cells; 72 h,11.6 ± 5.9 µM
same,anti-tumoral activity versus MSA and NSAIDs as single agents or combined,[3],higher anti-tumoral activity
same,IC50,"HCT-116 CRC cells; HCT-116, 24 h",> 50 µM
same,IC50,"HCT-116 CRC cells; HCT-116, 48 h",5.6 ± 2.6 µM
same,IC50,"HCT-116 CRC cells; HCT-116, 72 h",18.7 ± 4.9 µM
same,GP,SK-MEL-28 (melanoma),−7.85%
same,GP,BT-549 (breast),−80.79%
same,increase on cytotoxic potency compared with parent NSAID scaffolds,HT-29 (CRC),three-fold
same,TGI,"HT-29 (CRC); HT-29, 24 h",>50 µM
same,TGI,"HT-29 (CRC); HT-29, 48 h",0.6 ± 0.5 µM
same,TGI,"HT-29 (CRC); HT-29, 72 h",5.1 ± 2.2 µM
same,GI50,"HT-29 (CRC); Homo sapiens, HT-29, 24 h",4.9 ± 2.2 µM
same,IC50,"HT-29 (CRC); Homo sapiens, HT-29, 24 h",> 50 µM
same,CC50,"HT-29 (CRC); Homo sapiens, HT-29, 24 h",> 50 µM
same,GI50,"HT-29 (CRC); Homo sapiens, HT-29, 48 h",3.2 ± 1.9 µM
same,IC50,"HT-29 (CRC); Homo sapiens, HT-29, 48 h",3.3 ± 0.9 µM
same,CC50,"HT-29 (CRC); Homo sapiens, HT-29, 48 h",> 50 µM
same,viability at 5 µM,"HT-29 (CRC); Homo sapiens, HT-29, 48 h",26.3 ± 2.9%
same,viability at 25 µM,"HT-29 (CRC); Homo sapiens, HT-29, 48 h",17.9 ± 3.7%
same,viability at 50 µM,"HT-29 (CRC); Homo sapiens, HT-29, 48 h",18 ± 3.5%
same,GI50,"HT-29 (CRC); Homo sapiens, HT-29, 72 h",2.9 ± 0.8 µM
same,IC50,"HT-29 (CRC); Homo sapiens, HT-29, 72 h",3.3 ± 0.3 µM
same,CC50,"HT-29 (CRC); Homo sapiens, HT-29, 72 h",> 50 µM
same,cytotoxicity at 5 µM,"HT-29 (CRC); Homo sapiens, HT-29, read-out: inhibition in cell viability",75 to 80%
same,GP,TK-10 (renal),−58.40%
same,viability at 5 µM,[2],61.9 ± 4.4%
same,viability at 25 µM,[2],66.6 ± 1.9%
same,viability at 50 µM,[2],60.2 ± 5.5%
same,GP,DU-145 (prostate),−7.90%
